Assay results as given in US20230399623A1, “ARTIFICAL LIVER ORGANOIDS AND METHODS OF THEIR PRODUCTION” (Oslo Universitetssykehus HF, priority 2020, published 2023).

Assays:
organoids [1] = experiment: Heroin metabolism in liver organoids (UPLC-MS/MS); type: in vitro ADME, human; conditions: 10 μM heroin
Method: After 21 days differentiation, 50 organoids per well were loaded in triplicate into a 96-well plate and treated with culture media supplemented with 10 μM heroin for 1, 3, 6, and 24 hours. For controls, we used culture media without organoids; these were performed in parallel to measure heroin degradation throughout the experiment. To stop metabolism at each time point the samples were transferred to a new 96-well plate prefilled with formic acid (final conc. 0.1 M) along with internal standards. The samples were centrifuged for 10 minutes at 1000×g at 4° C. The supernatants were transferred to auto-sampler vials and analysed for heroin, morphine, and M3G using an Acquity UPLC system (Waters, Milford, MA) coupled to a Xevo-TQS triple quadrupole mass spectrometer with an electrospray ionization interface (Waters) based on a method previously described 62. Data acquisition, peak integration, and quantification of samples were performed using MassLynx 4.0 SCN509 software (Waters Corp., Milford, MA, USA).
The field of non-CYP450-mediated metabolism has attracted increasing attention as an important player in absorption, distribution, metabolism, and excretion^44. […] We tested if organoids supported heroin metabolism by exposure to 10 μM heroin and quantification by UPLC-MS/MS. […]

[2] = tested on: human liver microsomes and a human S9 fraction; experiment: Heroin metabolism in control liver fractions; type: in vitro ADME; conditions: controls: human liver microsomes and human S9 fraction
From the text: The field of non-CYP450-mediated metabolism has attracted increasing attention as an important player in absorption, distribution, metabolism, and excretion^44. We investigated liver carboxyl esterases (CES), which are hydrolytic enzymes involved in the metabolism of endogenous esters, ester-containing drugs, pro-drugs and environmental toxicants^45. The CES enzymes also metabolize a wide range of xenobiotic substrates including heroin, which is metabolized by sequential deacetylation (phase I reaction) to 6-monoacetylmorphine (6-MAM) and morphine. Morphine is then glucuronidated, by a phase II reaction via UDP-glucuronosyltransferase (UGT) to morphine-3-glucuronide (M3G). We tested if organoids supported heroin metabolism by exposure to 10 μM heroin and quantification by UPLC-MS/MS. We also compared organoid metabolism to human liver microsomes and a human S9 fraction (unfractionated microsomes and cytosol. The kinetics of metabolism was slower in the organoids we observed phase I metabolism of heroin by CES to morphine in approximately 6 hours, while the controls produced morphine in approximately 12 minutes. However, phase II metabolism (UGT) to morphine glucuronides was detectable in the organoids and absent in the controls.

organoids [3] = experiment: Oleic acid accumulation assay (BODIPY lipid staining); type: cell-based, human; conditions: 300 μM, 5 days
Method: 1 M Oleic acid (Sigma Aldrich) was diluted with NaOH (Sigma Aldrich) and heated at 70° C. for 30 minutes to form a 20 mM Sodium Oleate solution. This was then diluted with a 5% BSA/PBS solution at 37° C. to form a 5 mM Sodium Oleate/BSA complex. This was further diluted to 300 μM in culture media and incubated with organoids for 5 days, changing the media each day. After the fatty acid treatment, the organoids were then incubated with 3.8 μM BODIPY 493/503 (Life Technologies) for 30 minutes in culture media at 37° C., then washed two times with PBS before replacing with fresh culture media containing DRAQ5 (Thermofisher) at 1:1500. Organoids were then imaged on a confocal as described above.

Compound | phase II metabolism (UGT) to morphine glucuronides (organoids [1]) | phase II metabolism (UGT) to morphine glucuronides [2] | lipid accumulation in organoids (Bodipy) (organoids [3])
CC(=O)Oc1ccc2c3c1O[C@H]1[C@@H](OC(C)=O)C=C[C@H]4[C@@H](C2)N(C)CC[C@@]341 [heroin] | detectable | absent | –
CCCCCCCC/C=C\CCCCCCCC(=O)O [free fatty acid, Oleic acid] | – | – | massive lipid accumulation
